Data published in patent EP0358154B1, “Novel cyclobutane derivative and process for producing same” (NIPPON KAYAKU KABUSHIKI KAISHA, priority 1988, dated 1990).
Converted amounts (≈) assume the structure as drawn. Where two headings read alike, the source gives them in different places.

Assays:
[1] = system: simple Herpes 1 type virus (HSV-I); test: Plaque formation inhibition, HSV-I on Vero cell monolayer (Method 1); assay type: cell-based; conditions: read-out: IC50(µg/ml) HSV-1
Method: (§1) Antiviral activities against simple Herpes 1 type virus (HSV-I) and simple Herpes 2 type virus (HSV-II), both belonging to DNA virus, were examined by the following methods.
(§2) A 6-well multi-plate having a single layer of Vero cell (derived from the kidney cell of African Green-Monkey was infected with 100 to 150 PFU (plaque forming units) of virus. After adsorption at 37°C for one hour, a layer of agar medium (Eagle MEM medium containing 1.5% of agar) containing a varied concentration of sample was superposed thereon, and a cultivation was carried out at 37°C for 48 hours in 5% (v/v) carbon dioxide incubator. The formation of plaque was measured, from which 50% inhibitory value (IC50) was determined.

[2] = system: simple Herpes 2 type virus (HSV-II); test: Plaque formation inhibition, HSV-II on Vero cell monolayer (Method 1); assay type: cell-based; conditions: read-out: IC50(µg/ml) HSV-2
Method: as §1, §2

[3] = system: Human Immunodeficiency Virus (HIV); test: Anti-HIV activity in MT-4 cells, virus antigen by fluorescent antibody method (Method 4); assay type: cell-based; conditions: Human immunodeficiency virus 1, MT4, 96 h, read-out: IC50(µg/ml) HIV
Method: Antiviral activity against Human Immunodeficiency Virus (HIV) belonging to […] was examined by the following method.
MT-4 cell (about 50,000 cells/ml) was introduced into a 24-well tray, to which was added […] of a solution containing a predetermined quantity of sample compound. Culture was carried out at 37°C for 2 hours in 5% (v/v) carbon dioxide incubator. Then, 10^3 to 10^4 infection units of HIV was added and cultured for 4 days, after which a part of the culture fluid was applied onto a slide glass and immobilized with acetone and development of virus antigen was tested by fluorescent antibody method.
As the primary antibody of fluorescent antibody method, serum of AIDS patient was used. As the secondary antibody, […] was used.

[4] = system: human Cytomegalovirus (HCMV); test: Anti-HCMV plaque formation inhibition on human embryonal fibroblast (Method 2); assay type: cell-based; conditions: read-out: IC50(µg/ml) HCMV
Method: Antiviral activity against human Cytomegalovirus (HCMV) belonging to DNA virus was examined by the following method.
Anti-HCMV activity was determined in the following manner. Thus, a 35 mm dish having a single layer of human embryonal fibroblast was infected with 100 PFU of HCMV (A0169 strain). After adsorption for one hour, one layer of a medium (0.5% agarose, 2% fetal calf serum) containing a varied concentration of sample compound was superposed thereon, and cultivation was carried out at 37°C for 10 days in 5% (v/v) carbon dioxide incubator. Then, formation of plaque was measured, from which 50% inhibitory value (IC50) was determined.

B hepatitis virus (HBV) = test: Anti-HBV activity in HB611 liver cells, HBV DNA by Southern method (Method 3); assay type: cell-based; conditions: read-out: IC50(µg/ml) HBV
Method: Antiviral activity against B hepatitis virus (HBV) belonging to DNA virus was examined by the following method.
According to the procedure of Dulbecco (Proc. Natl. Acad. Sci. USA, 84, 444 (1987)), cultured liver cell strain HB611 producing and releasing active B hepatitis virus was cultured in a modified Eagle medium (GIBCO) at 37°C at a CO2 concentration of 5% in the presence of 10% fetal calf serum, 200 micrograms/ml of G418, 100 µ/ml of Penicillin and 100 µ/ml of Streptomycin. The culture fluid was inoculated onto a 6-well plate at a rate of 5 x 10^4 cells/well (35 mm). One or two days after, 50% confluence was reached, when a predetermined quantity of sample compound was added and cultivation was continued. Thereafter, cultivation was continued for 15 days, while refreshing the medium with a fresh medium containing the same concentrations of the chemicals at intervals of 3 days. Then, the medium was removed, and the cell bodies were treated with 0.5 ml of Lysis buffer (10 mM Tris HCl, pH 7.8/5 mM Na2EDTA, 1% SDS/0.1 mg/ml […]) at 37°C for one hour and dissolved thereinto. The DNA thus obtained was purified by RNase treatment, phenolchloroform treatment and ethanol precipitation.
Then, 5 micrograms of DNA was subjected to Hind III treatment, and DNA pattern was analyzed according to Southern method by using ^32P-labelled B hepatitis virus DNA as a probe.

[5] = system: human cervical cancer HeLa S3 cell; test: Growth inhibition of HeLa S3 cells, Methylene Blue dyeing (Method 5); assay type: cell-based; conditions: read-out: IC50(µg/ml) HeLaS3
Method: Carcinostatic activities on human cervical cancer HeLa S3 cell, mouse leukemia L1210 cell and […] cell were examined by the following methods. HeLa S3 cell was made into a suspension (7.5 x 10^3 cells/ml). The suspension was spread on a 96-well flat plate at a rate of 0.2 ml/well. After culturing it at 37°C for 24 hours in 5% carbon dioxide incubator, 10 microliters of a sample was added and cultivation was carried out for 72 hours. Then, culture fluid was taken out from each well and immobilized with methanol, after which 0.1 ml/well of 0.05% Methylene Blue/10 mM-Tris-HCl (pH 8.5) solution was added and dyeing was carried out at room temperature for 30 minutes. The dyed fluid in each well was withdrawn by means of aspirator and three times washed with pure water. Then, 3% HCl was added at a rate of 0.2 ml/well and the resulting mixture was sealed and allowed to stand at room temperature for about 24 hours, to extract pigment from the cells. Optical absorbance of each well at 660 nm was measured by means of […] Microplate Reader, from which growth inhibitory rate (%) at varied concentration was calculated according to the following equation. […] Growth inhibitory rate (%) = (1 - A1 /A0 ) x 100 [formula] wherein A1 = Absorbance in the treated group, A0 = Absorbance in the control group.

human leukemia P388 cell = test: Growth inhibition of P388 cells, cell counting (Method 6); assay type: cell-based; conditions: read-out: IC50(µg/ml) P388
Method: (§3) Carcinostatic activities on human cervical cancer HeLa S3 cell, mouse leukemia L1210 cell and […] cell were examined by the following methods. Cells of P388 and L1210 were spread onto a 24-well plate. After adding a sample, it was cultured at 37°C for 48 hours in 5% CO2 incubator. After the culture, the number of cells was counted by means of […]. The growth inhibitory rate in the treated group, based on that in the control group, was calculated from the following equation, from which 50% inhibitory concentration (CI50, micrograms/ml) was determined: The results obtained are as shown in Table 3. Growth inhibitory rate (%) = [1-(NT -NO )/NC -NO ] x 100 [formula] wherein NT = Cell number in treated group NO = cell number at the start of culture NC = Cell number in control group Table 3

[6] = system: mouse leukemia L1210 cell; test: Growth inhibition of L1210 cells, cell counting (Method 6); assay type: cell-based; conditions: read-out: IC50(µg/ml) L1210
Method: as §3

[7] = system: herpes simplex virus type 2 (HSV-2); test: HSV-2 infection in mice, survival (Experimental Example 6); assay type: in vivo, Balb/c mice; conditions: for Means survival time / Survivors/Total: once a day for 10 days, monitored 20 days
Method: Activity of the sample (compound No. 2) against herpes simplex virus type 2 (HSV-2) infection was examined in mice. Balb/c mice (6 week-old, male) were inoculated intraperitoneally (l.p.) with HSV-2 strain 186 at 4.8 x 10^5 PFU/0.2 ml per mouse. The sample was formulated in saline and applied either orally (p.o.) or i.p. at the indicated doses once a day for 10 days, starting 6 hrs after virus infection. The mortality was monitored for 20 days after inoculation. Efficacy of the sample was indicated as extension of survival time and number of survivors. Aciclovir (ACV: commercialized antiviral agent) was used as reference sample.

Compound `Nc1nc2c(ncn2[C@@H]2C[C@H](CO)[C@H]2CO)c(=O)[nH]1` [Compound 2, 9-[(1R,2R,3S)-2,3-Bis(hydroxymethyl)cyclobutane-1-yl] -guanine] has an IC50 ([1]; Human alphaherpesvirus 1, Vero, 48 h) of 0.03 µg/mL (≈ 0.113 µM), an IC50 ([2]; Human alphaherpesvirus 2, Vero, 48 h) of 0.13 µg/mL (≈ 0.49 µM) and an IC50 [3] of 0.3 µg/mL (≈ 1.13 µM). For the same compound, the IC50 ([4]; Human betaherpesvirus 5, Fibroblast, 240 h) was 0.4 µg/mL (≈ 1.51 µM), the IC50 (B hepatitis virus (HBV); HB611, 360 h) was 0.86 µg/mL (≈ 3.24 µM) and the IC50 ([5]; HeLa S3, 72 h) was 19 µg/mL (≈ 71.6 µM). The IC50 (human leukemia P388 cell; P388, 48 h) was 1.6 µg/mL (≈ 6.03 µM), the IC50 ([6]; L1210, 48 h) was 8.1 µg/mL (≈ 30.5 µM) and the Means survival time ([7]; i.p., 1.25 mg/kg/day) was 19.8 days. The Survivors/Total ([7]; i.p., 1.25 mg/kg/day) was 7/10, the Means survival time ([7]; i.p., 2.5 mg/kg/day) was 18.9 days and the Survivors/Total ([7]; i.p., 2.5 mg/kg/day) was 9/10. For the same compound, the Means survival time ([7]; i.p., 5 mg/kg/day) was 20.0 days, the Survivors/Total ([7]; i.p., 5 mg/kg/day) was 10/10 and the Means survival time ([7]; i.p., 10 mg/kg/day) was 20.0 days. For the same compound, the Survivors/Total ([7]; i.p., 10 mg/kg/day) was 10/10, the Means survival time ([7]; i.p., 20 mg/kg/day) was 20.0 days and the Survivors/Total ([7]; i.p., 20 mg/kg/day) was 10/10. For the same compound, the “reducing mortality rate of mice infected with HSV-2” value ([7]; irrespective of administration routes (i.p., p.o.), 1.25 to 20 mg/kg per day) was “highly effective”, the Means survival time ([7]; p.o., 1.25 mg/kg/day) was 12.4 days and the Survivors/Total ([7]; p.o., 1.25 mg/kg/day) was 2/10. For the same compound, the Means survival time ([7]; p.o., 2.5 mg/kg/day) was 14.7 days, the Survivors/Total ([7]; p.o., 2.5 mg/kg/day) was 4/10 and the Means survival time ([7]; p.o., 5 mg/kg/day) was 18.9 days. The Survivors/Total ([7]; p.o., 5 mg/kg/day) was 8/10, the Means survival time ([7]; p.o., 10 mg/kg/day) was 19.8 days and the Survivors/Total ([7]; p.o., 10 mg/kg/day) was 9/10. For the same compound, the Means survival time ([7]; p.o., 20 mg/kg/day) was 19.7 days and the Survivors/Total ([7]; p.o., 20 mg/kg/day) was 9/10.
In the case of `Nc1nc2c(ncn2COCCO)c(=O)[nH]1` [ACV, Aciclovir, reference compound], the Means survival time ([7]; i.p., 12.5 mg/kg/day) is reported as 11.1 days, the Survivors/Total ([7]; i.p., 12.5 mg/kg/day) is reported as 1/10 and the Means survival time ([7]; i.p., 25 mg/kg/day) is reported as 12.7 days. For the same compound, the Survivors/Total ([7]; i.p., 25 mg/kg/day) was 1/10, the Means survival time ([7]; i.p., 50 mg/kg/day) was 16.1 days and the Survivors/Total ([7]; i.p., 50 mg/kg/day) was 5/10. The Means survival time ([7]; i.p., 100 mg/kg/day) was 5.4 days, the Survivors/Total ([7]; i.p., 100 mg/kg/day) was 2/10 and the Means survival time ([7]; p.o., 12.5 mg/kg/day) was 9.3 days. The Survivors/Total ([7]; p.o., 12.5 mg/kg/day) was 0/10, the Means survival time ([7]; p.o., 25 mg/kg/day) was 11.1 days and the Survivors/Total ([7]; p.o., 25 mg/kg/day) was 0/10. For the same compound, the Means survival time ([7]; p.o., 50 mg/kg/day) was 14.8 days, the Survivors/Total ([7]; p.o., 50 mg/kg/day) was 4/10 and the Means survival time ([7]; p.o., 100 mg/kg/day) was 14.3 days. For the same compound, the Survivors/Total ([7]; p.o., 100 mg/kg/day) was 2/10.
In the case of `Nc1ncnc2c1ncn2[C@@H]1C[C@H](CO)[C@H]1CO` [Compound 1, 9-[(1R,2R,3S)-2,3-Bis(hydroxymethyl)cyclobutane-1-yl] -adenine], the IC50 ([1]; Human alphaherpesvirus 1, Vero cell, plaque formation, 48 hours) is reported as 7.3 µg/mL (≈ 29.3 µM), the IC50 ([2]; Human alphaherpesvirus 2, Vero cell, plaque formation, 48 hours) is reported as 8.9 µg/mL (≈ 35.7 µM) and the IC50 ([3]; MT-4 cell, cultured for 4 days, virus antigen) is reported as 0.03 µg/mL (≈ 0.12 µM). The IC50 ([4]; Human betaherpesvirus 5, 240 h, human embryonal fibroblast, A0169 strain, plaque formation, 10 days) was 12 µg/mL (≈ 48.1 µM), the IC50 (B hepatitis virus (HBV); 360 h, HB611 cells, 15 days, HBV DNA) was 0.024 µg/mL (≈ 0.0963 µM) and the IC50 ([5]; HeLa S3, 72 hours, growth inhibition) was 14 µg/mL (≈ 56.2 µM). The IC50 (human leukemia P388 cell; P388, 48 hours, growth inhibition) was 0.58 µg/mL (≈ 2.33 µM) and the IC50 ([6]; L1210, 48 hours, growth inhibition) was 1.1 µg/mL (≈ 4.41 µM).
